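These data come from cells grown in 96-well plates and exposed to compound for 48 hours at five concentrations. GI50 is the concentration that inhibits growth by half.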 The source made the active and inactive calls. Rule as the data show it: active = GI50 up to about 1.1 µM and inactive = higher.
Legend:
Experiment in all cases: NCI anticancer screen, dose series, 48 h
MDA-MB-231 = tested on: MDA-MB-231
A549 = tested on: A549
MCF7 = tested on: MCF7
SF-268 = tested on: SF-268
OVCAR-8 = tested on: OVCAR-8
SNB-75 = tested on: SNB-75
MDA-MB-435 = tested on: MDA-MB-435
NCI-H226 = tested on: NCI-H226
NCI-H522 = tested on: NCI-H522
TK-10 = tested on: TK-10
NCI-H460 = tested on: NCI-H460
RXF 393 = tested on: RXF 393
HT-29 = tested on: HT-29
NCI/ADR-RES = tested on: NCI/ADR-RES
OVCAR-5 = tested on: OVCAR-5
SNB-19 = tested on: SNB-19
CCRF-CEM = tested on: CCRF-CEM
UO-31 = tested on: UO-31
HL-60 = tested on: HL-60
PC-3 = tested on: PC-3

Measured: GI50

CCOC(=O)/C(=C\c1c(C)[nH]c2ccccc12)P(=O)(OCC)OCC
inactive: MDA-MB-231 > 100 µM | A549 > 100 µM | MCF7 > 100 µM | SF-268 > 100 µM | OVCAR-8 > 100 µM | SNB-75 > 100 µM | MDA-MB-435 > 100 µM | NCI-H226 > 100 µM | NCI-H522 > 100 µM | TK-10 > 100 µM | NCI-H460 > 100 µM | RXF 393 > 100 µM | HT-29 > 100 µM | NCI/ADR-RES > 100 µM | OVCAR-5 > 100 µM | SNB-19 > 100 µM

COc1cc(C2SCC(=O)N2c2ccc(-n3c(-c4ccccc4)nc4ccccc4c3=O)cc2)cc(OC)c1OC (stereo unspecified)
inactive: CCRF-CEM 69.7 µM | MDA-MB-231 > 100 µM | A549 > 100 µM | MCF7 > 100 µM | UO-31 8.71 µM | SF-268 82.4 µM | OVCAR-8 > 100 µM | MDA-MB-435 > 100 µM | NCI-H522 > 100 µM | TK-10 > 100 µM | HL-60 > 100 µM | NCI-H460 > 100 µM | HT-29 > 100 µM | NCI/ADR-RES > 100 µM | PC-3 > 100 µM | OVCAR-5 > 100 µM | SNB-19 > 100 µM

CC1=C(C)C(=O)O[C@@H]([C@](C)(O)[C@]2(O)CC[C@@]3(O)[C@@H]4C[C@H](O)[C@]5(O)[C@@H](O)C=CC(=O)[C@]5(C)[C@H]4CC[C@]23C)C1
inactive: CCRF-CEM 28.4 µM | MDA-MB-231 > 100 µM | A549 > 100 µM | MCF7 46.2 µM | UO-31 > 100 µM | SF-268 > 100 µM | OVCAR-8 > 100 µM | SNB-75 37.2 µM | MDA-MB-435 87.9 µM | NCI-H226 > 100 µM | NCI-H522 42.3 µM | TK-10 > 100 µM | HL-60 18 µM | NCI-H460 > 100 µM | RXF 393 > 100 µM | HT-29 86.3 µM | PC-3 > 100 µM | OVCAR-5 > 100 µM | SNB-19 > 100 µM

CCc1n[nH]c(=O)n1/N=C/c1ccc(C)cc1
inactive: CCRF-CEM > 100 µM | MDA-MB-231 > 100 µM | A549 > 100 µM | MCF7 > 100 µM | UO-31 64.9 µM | SF-268 66.5 µM | OVCAR-8 > 100 µM | MDA-MB-435 > 100 µM | NCI-H226 70.8 µM | NCI-H522 > 100 µM | TK-10 60.3 µM | HL-60 1.37 µM | NCI-H460 > 100 µM | RXF 393 > 100 µM | HT-29 54.3 µM | NCI/ADR-RES > 100 µM | OVCAR-5 > 100 µM | SNB-19 > 100 µM

O=C(c1cccc2cc(O)ccc12)c1cn(CCN2CCOCC2)c2ccccc12
inactive: CCRF-CEM 4.06 µM | MDA-MB-231 19.5 µM | MCF7 25.5 µM | UO-31 24.1 µM | SF-268 24 µM | OVCAR-8 31.6 µM | NCI-H226 39.9 µM | NCI-H522 30.3 µM | TK-10 21.6 µM | HL-60 28.2 µM | RXF 393 21.8 µM | HT-29 20.7 µM | PC-3 12 µM | OVCAR-5 29.5 µM | SNB-19 55.7 µM

CC(=O)OCC1=C2C(OC(=O)C(C)C)CC3(COC(C)=O)OC3/C=C\C3(C)OC3C2OC1=O (stereo unspecified)
inactive: CCRF-CEM 50.5 µM | MDA-MB-231 > 100 µM | A549 > 100 µM | MCF7 > 100 µM | UO-31 > 100 µM | SF-268 > 100 µM | OVCAR-8 > 100 µM | SNB-75 > 100 µM | MDA-MB-435 > 100 µM | NCI-H226 > 100 µM | TK-10 > 100 µM | HL-60 34.4 µM | NCI-H460 > 100 µM | RXF 393 > 100 µM | HT-29 > 100 µM | PC-3 > 100 µM | OVCAR-5 > 100 µM | SNB-19 > 100 µM

C/C(=N\Nc1ccc([N+](=O)[O-])cc1[N+](=O)[O-])c1sc(-n2nc(-c3ccccc3)cc2-c2ccccc2)nc1C
inactive: CCRF-CEM 19.5 µM | MDA-MB-231 44.4 µM | MCF7 46.5 µM | UO-31 19.8 µM | SF-268 44.2 µM | OVCAR-8 30.5 µM | SNB-75 45.5 µM | MDA-MB-435 33 µM | NCI-H226 34.1 µM | NCI-H522 22 µM | TK-10 27.9 µM | HL-60 12.6 µM | NCI-H460 30.8 µM | HT-29 17 µM | NCI/ADR-RES 21.9 µM | OVCAR-5 > 100 µM | SNB-19 93.5 µM

COC(=O)c1ccccc1C1=C([N+](=O)[O-])C(c2ccccc2)C(C#N)=C(N)O1 (stereo unspecified)
inactive: CCRF-CEM 30.1 µM | MDA-MB-231 > 100 µM | A549 > 100 µM | SF-268 31.8 µM | OVCAR-8 32.1 µM | SNB-75 96.2 µM | MDA-MB-435 72.8 µM | NCI-H226 > 100 µM | NCI-H522 15 µM | TK-10 > 100 µM | HL-60 42.8 µM | NCI-H460 > 100 µM | RXF 393 30.2 µM | HT-29 96.6 µM | NCI/ADR-RES > 100 µM | PC-3 > 100 µM | OVCAR-5 > 100 µM | SNB-19 > 100 µM

CCOC(=O)C1(C#N)CC1
inactive: CCRF-CEM > 100 µM | MDA-MB-231 > 100 µM | A549 > 100 µM | MCF7 > 100 µM | UO-31 > 100 µM | SF-268 > 100 µM | OVCAR-8 > 100 µM | SNB-75 > 100 µM | NCI-H226 > 100 µM | NCI-H522 > 100 µM | TK-10 > 100 µM | HL-60 > 100 µM | NCI-H460 > 100 µM | RXF 393 7.94 µM | HT-29 > 100 µM | NCI/ADR-RES > 100 µM | PC-3 > 100 µM | OVCAR-5 > 100 µM | SNB-19 > 100 µM

CN(C)c1ccc2oc(=O)c3ccccc3c2c1
inactive: CCRF-CEM > 100 µM | MDA-MB-231 17.1 µM | A549 > 100 µM | SF-268 28.6 µM | OVCAR-8 > 100 µM | SNB-75 27.5 µM | MDA-MB-435 > 100 µM | NCI-H226 46.7 µM | NCI-H522 55.8 µM | TK-10 39.7 µM | HL-60 > 100 µM | NCI-H460 > 100 µM | RXF 393 31.5 µM | HT-29 > 100 µM | PC-3 > 100 µM | OVCAR-5 > 100 µM | SNB-19 23.1 µM

N#CC(C#N)/N=N/c1ccc(-c2nc3ccccc3s2)cc1
inactive: MCF7 4.53 µM | UO-31 7.46 µM | OVCAR-8 4.37 µM | SNB-75 25.9 µM | MDA-MB-435 5.6 µM | NCI-H522 2.65 µM | TK-10 3.98 µM | RXF 393 4.23 µM | HT-29 6.64 µM | NCI/ADR-RES 3.54 µM | PC-3 2.8 µM | OVCAR-5 28 µM

Source: ChEMBL document CHEMBL1201862, “PubChem BioAssay data set” (2004)
